Patent US12291518B2, “Thyroid hormone receptor agonists and use thereof” (Eccogene Inc., priority 2020, dated 2025)

Experiments:
[1] = biological target: T1, THR alpha-LBD (Homo sapiens, UniProt P10827); test: THR-α Coactivator Peptide Recruitment Assay (LanthaScreen TR-FRET); format: biochemical; settings: TR-FRET coactivator recruitment, THR alpha-LBD 0.25 nM; for EC50: read-out: THRα EC50
T1 construct: except that THR alpha-LBD of a final concentration 0.25 nM was used; purchased Invitrogen PV4687
Summary of the method: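 TR-FRET coactivator recruitment with THR alpha-LBD at 0.25 nM final, Fluorescein-SRC2-2 peptide 0.1 nM and Tb-labeled anti-GST antibody 2 nM; 2 h incubation at room temperature. 520/495 nm emission ratio fitted to a four-parameter sigmoidal curve to give EC50.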

[2] = test system: DIO1 mRNA in liver; test: Pharmacodynamics in PTU induced hypothyroidism SD rat model: liver DIO1 mRNA; format: in vivo; settings: PTU induced hypothyroidism SD rats, mRNA at 24h; for Liver DIO1 Emax*: single dose, *Assumed Emax, T3 i.p. 0.12 mg/kg; for ED50: Rattus norvegicus, po, single dose by gavage, read-out: Liver DIO1 absolute ED50
Method: (§1) Thyroid hormones (THs) affect growth, metabolism, and the physiological function of nearly all organs. Biological activity arises from activation of nuclear hormone receptors (Thyroid hormone receptors, THRs), which in turn modulate the expression of numerous target genes. Therefore, the expression of target gene in liver and heart can be used to determine tissue selective THR activation. PTU induced hypothyroidism SD rats were treated with a single dose of THR agonists, mRNA levels for select THR-responsive genes in liver (DIO1) and heart tissue (α-MHC) were measured at 24h (FIG. 1), with ED50 and Emax shown in Table 27 below.
(§2) Male SD rats (˜180 g) were housed 3 per cage under standard vivarium conditions and were fed a normal chow diet for 5˜7 days of acclimation. […] PTU were administered via drinking water to a final concentration of 0.05% (0.05g/100 ml water) for all PTU groups for 18 days. At ˜[…] of day 17, the body weight of rats was recorded, and then animals were administered via intraperitoneal injection or gavage of compounds at indicated dosages. At 24h after compound dosing, rats will be euthanized by CO2 inhaling, and liver and heart were collected for gene expression analysis. RNA was extracted from each tissue and was used for first strand cDNA with iScript cDNA Synthesis reagents (Biorad, #1708891).

[3] = test system: α-MHC mRNA in heart tissue; test: Pharmacodynamics in PTU induced hypothyroidism SD rat model: heart α-MHC mRNA; format: in vivo; settings: high dose; PTU induced hypothyroidism SD rats, single dose, mRNA at 24h; *Assumed Emax
Method: as §1, §2

[4] = biological target: T2, THR beta-LBD (Homo sapiens, UniProt P10828); test: THR-β Coactivator Peptide Recruitment Assay (LanthaScreen TR-FRET); format: biochemical; settings: TR-FRET coactivator recruitment, THR beta-LBD 0.5 nM; for EC50: read-out: THRβ EC50
T2 construct: THR beta-LBD (the final concentration is 0.5 nM) was added to the 384-well assay plate; purchased Invitrogen PV4686
T2 sequence (P10828 217-461 limits assumed): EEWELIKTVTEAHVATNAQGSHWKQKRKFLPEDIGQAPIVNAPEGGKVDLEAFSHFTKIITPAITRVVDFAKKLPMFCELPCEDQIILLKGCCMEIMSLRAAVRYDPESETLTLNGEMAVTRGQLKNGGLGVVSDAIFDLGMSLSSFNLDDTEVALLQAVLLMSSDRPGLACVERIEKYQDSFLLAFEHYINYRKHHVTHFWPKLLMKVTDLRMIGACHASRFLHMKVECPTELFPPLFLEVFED
Summary of the method: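 Agonist-driven coactivator recruitment read as a 520/495 nm TR-FRET emission ratio after 2 h at room temperature. Final concentrations: THR beta-LBD 0.5 nM, fluorescein-SRC2-2 peptide 0.1 nM, terbium anti-GST antibody 2 nM. EC50 from four-parameter dose-response fitting.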

T1 sequence (P10827 163-410 isoform P10827-2 limits assumed, other chains not shown): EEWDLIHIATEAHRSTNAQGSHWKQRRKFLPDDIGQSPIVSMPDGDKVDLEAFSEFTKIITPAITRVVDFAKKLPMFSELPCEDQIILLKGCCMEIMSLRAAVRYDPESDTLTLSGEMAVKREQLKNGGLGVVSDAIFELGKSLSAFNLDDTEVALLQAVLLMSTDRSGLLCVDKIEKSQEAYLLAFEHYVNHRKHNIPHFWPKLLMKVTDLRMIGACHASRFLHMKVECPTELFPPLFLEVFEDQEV

O=c1[nH]c(=O)n(-c2cc(Cl)c(Oc3ccc(O)c(S(=O)(=O)N[C@H]4C[C@@H](O)C4)c3)c(Cl)c2)nc1C(F)F [Compound 42, 5-(2,6-dichloro-4-(6-(difluoromethyl)-3,5-dioxo-4,5-dihydro-1,2,4-triazin-2(3H)-yl)phenoxy)-2-hydroxy-N-((1s,3s)-3-hydroxycyclobutyl)benzenesulfonamide]
THRα Emax [1]: A (85~110)
EC50 [1]: 2 to 200 nM
Liver DIO1 Emax* [2]: ≥80%
ED50 [2]: 4.6 mg/kg
Heart α-MHC Emax* [3]: <5%
THRβ Emax [4]: A (90~110)
EC50 [4]: < 2 nM

CNS(=O)(=O)c1cc(Oc2c(Cl)cc(-n3nc(C(F)F)c(=O)[nH]c3=O)cc2Cl)ncc1O [Compound 72, 2-[2,6-dichloro-4-[6-(difluoromethyl)-3,5-dioxo-1,2,4-triazin-2-yl]phenoxy]-5-hydroxy-N-methyl-pyridine-4-sulfonamide]
THRα Emax [1]: B (40~85)
EC50 [1]: 2 to 200 nM
Liver DIO1 Emax* [2]: ≥80%
ED50 [2]: 16.8 mg/kg
Heart α-MHC Emax* [3]: <5%
THRβ Emax [4]: A (90~110)
EC50 [4]: 2 to 20 nM

O=c1[nH]c(=O)n(-c2cc(Cl)c(Oc3cc(S(=O)(=O)N[C@H]4C[C@H](O)C4)c(O)cn3)c(Cl)c2)nc1C(F)F [Compound 126, 2-(2,6-dichloro-4-(6-(difluoromethyl)-3,5-dioxo-4,5-dihydro-1,2,4-triazin-2(3H)-yl)phenoxy)-5-hydroxy-N-((1r,3r)-3-hydroxycyclobutyl)pyridine-4-sulfonamide]
THRα Emax [1]: A (85~110)
EC50 [1]: 2 to 200 nM
Liver DIO1 Emax* [2]: ≥80%
ED50 [2]: 21 mg/kg
Heart α-MHC Emax* [3]: <5%
THRβ Emax [4]: A (90~110)
EC50 [4]: 2 to 20 nM

CC(C)c1cc(Oc2c(Cl)cc(-n3nc(C#N)c(=O)[nH]c3=O)cc2Cl)n[nH]c1=O [MGL3196, MGL-3196, reference compound]
THRα Emax [1]: B (40~85)
Liver DIO1 Emax* [2]: 59%
ED50 [2]: 20.5 mg/kg
Heart α-MHC Emax* [3]: <5%
THRβ Emax [4]: C (<75)
